Values quoted from earlier work as cited in patent US20040039036A1, “Water-soluble liquid internal medicine” (priority 2000, published 2004).

Settings: JP-A-11-193233 injectable solution, famotidine 1 mg/mL; after preservation at 40° C. for 2 months

residual rate: 96.6%
Compound: NC(N)=Nc1nc(CSCCC(N)=NS(N)(=O)=O)cs1 [famotidine]
